Each block holds one molecule with its values, some of them ahead of it.
Tests used:
[1] = biological target: T1, Serine/threonine-protein kinase Nek5 (Homo sapiens) (UniProt Q6P3R8); conditions: at 10 µM
T1 sequence (whole entry): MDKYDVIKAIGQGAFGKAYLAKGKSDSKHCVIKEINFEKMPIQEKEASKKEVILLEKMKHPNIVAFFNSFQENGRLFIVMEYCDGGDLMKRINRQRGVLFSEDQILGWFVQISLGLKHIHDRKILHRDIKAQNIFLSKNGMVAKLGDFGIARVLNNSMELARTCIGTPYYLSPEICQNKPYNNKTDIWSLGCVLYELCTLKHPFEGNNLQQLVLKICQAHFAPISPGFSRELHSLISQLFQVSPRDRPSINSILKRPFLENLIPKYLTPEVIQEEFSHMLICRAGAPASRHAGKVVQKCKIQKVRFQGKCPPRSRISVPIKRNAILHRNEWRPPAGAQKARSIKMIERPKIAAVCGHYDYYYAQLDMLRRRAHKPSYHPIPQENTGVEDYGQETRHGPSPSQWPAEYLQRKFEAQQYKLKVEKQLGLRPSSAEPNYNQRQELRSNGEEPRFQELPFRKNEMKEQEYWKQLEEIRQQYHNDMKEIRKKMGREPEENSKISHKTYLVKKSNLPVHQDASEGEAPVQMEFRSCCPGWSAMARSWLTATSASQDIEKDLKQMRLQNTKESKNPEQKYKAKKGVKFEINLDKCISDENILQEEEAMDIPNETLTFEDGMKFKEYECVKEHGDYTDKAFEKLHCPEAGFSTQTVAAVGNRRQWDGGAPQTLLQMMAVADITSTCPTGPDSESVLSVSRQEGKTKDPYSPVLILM

[2] = biological target: T2, Serine/threonine-protein kinase LATS1 (Homo sapiens) (UniProt O95835); test: Selectivity interaction (ActivX KiNativ screen (kinase selectivity in THP-1 cell lysates)) EUB0000639a LATS1; format: subcellular; conditions: lysate, at 0.04 µM
T2 sequence (whole entry): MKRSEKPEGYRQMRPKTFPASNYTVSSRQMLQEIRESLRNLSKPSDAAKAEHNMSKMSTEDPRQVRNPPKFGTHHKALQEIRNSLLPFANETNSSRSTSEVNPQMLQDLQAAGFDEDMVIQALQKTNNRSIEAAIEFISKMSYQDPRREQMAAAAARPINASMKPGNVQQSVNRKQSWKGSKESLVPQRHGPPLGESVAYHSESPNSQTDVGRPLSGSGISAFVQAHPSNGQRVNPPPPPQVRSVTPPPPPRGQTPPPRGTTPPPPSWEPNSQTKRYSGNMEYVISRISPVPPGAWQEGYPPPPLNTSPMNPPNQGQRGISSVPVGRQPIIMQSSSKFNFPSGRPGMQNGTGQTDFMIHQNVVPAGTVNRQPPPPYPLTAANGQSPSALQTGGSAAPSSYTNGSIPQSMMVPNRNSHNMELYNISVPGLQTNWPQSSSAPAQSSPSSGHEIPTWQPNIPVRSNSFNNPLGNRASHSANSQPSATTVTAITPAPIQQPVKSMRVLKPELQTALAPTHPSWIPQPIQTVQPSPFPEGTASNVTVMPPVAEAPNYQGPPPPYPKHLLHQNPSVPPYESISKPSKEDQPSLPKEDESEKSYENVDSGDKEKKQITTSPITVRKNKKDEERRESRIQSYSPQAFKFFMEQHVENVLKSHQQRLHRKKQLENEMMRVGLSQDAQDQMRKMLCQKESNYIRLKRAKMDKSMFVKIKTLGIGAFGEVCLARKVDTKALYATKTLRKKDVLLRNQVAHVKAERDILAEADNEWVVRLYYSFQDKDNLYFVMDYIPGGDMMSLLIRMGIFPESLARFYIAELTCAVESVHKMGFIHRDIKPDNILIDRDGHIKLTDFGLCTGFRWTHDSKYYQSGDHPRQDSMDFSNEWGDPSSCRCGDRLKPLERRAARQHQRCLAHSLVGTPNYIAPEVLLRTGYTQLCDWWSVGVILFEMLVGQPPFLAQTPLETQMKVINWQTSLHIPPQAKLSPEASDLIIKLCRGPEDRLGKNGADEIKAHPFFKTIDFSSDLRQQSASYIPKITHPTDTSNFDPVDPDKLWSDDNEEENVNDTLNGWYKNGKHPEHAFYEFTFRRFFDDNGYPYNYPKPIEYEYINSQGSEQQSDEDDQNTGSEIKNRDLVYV

[3] = biological target: Platelet-derived growth factor receptor beta (Homo sapiens, UniProt P09619); test: Selectivity interaction (KinomeScan (DiscoverX)) EUB0001619a PDGFRB; conditions: at 1 µM
[4] = biological target: T3, Dual specificity mitogen-activated protein kinase kinase 6 (Homo sapiens) (UniProt P52564); test: Selectivity interaction (Kinase panel (KiNativ target engagement assay in Jurkat cells)) EUB0001635a MAP2K6; format: cell-based; conditions: Selectivity number of off-targets 0.0, Selectivity number of targets 233.0, Source Knowledge https://www.sciencedirect.com/science/article/pii/S2451945619300674?via%3Dihub, at 1 µM
T3 sequence (whole entry): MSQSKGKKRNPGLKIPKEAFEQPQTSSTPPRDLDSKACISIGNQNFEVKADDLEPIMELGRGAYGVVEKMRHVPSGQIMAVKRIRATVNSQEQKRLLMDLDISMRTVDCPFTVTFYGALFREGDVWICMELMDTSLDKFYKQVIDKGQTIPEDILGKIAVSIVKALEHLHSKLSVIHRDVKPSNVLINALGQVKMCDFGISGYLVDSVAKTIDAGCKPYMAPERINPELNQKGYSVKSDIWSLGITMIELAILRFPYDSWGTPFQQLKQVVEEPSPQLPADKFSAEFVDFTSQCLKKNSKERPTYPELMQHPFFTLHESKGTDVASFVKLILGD

Sequence of Platelet-derived growth factor receptor beta (P09619 whole entry): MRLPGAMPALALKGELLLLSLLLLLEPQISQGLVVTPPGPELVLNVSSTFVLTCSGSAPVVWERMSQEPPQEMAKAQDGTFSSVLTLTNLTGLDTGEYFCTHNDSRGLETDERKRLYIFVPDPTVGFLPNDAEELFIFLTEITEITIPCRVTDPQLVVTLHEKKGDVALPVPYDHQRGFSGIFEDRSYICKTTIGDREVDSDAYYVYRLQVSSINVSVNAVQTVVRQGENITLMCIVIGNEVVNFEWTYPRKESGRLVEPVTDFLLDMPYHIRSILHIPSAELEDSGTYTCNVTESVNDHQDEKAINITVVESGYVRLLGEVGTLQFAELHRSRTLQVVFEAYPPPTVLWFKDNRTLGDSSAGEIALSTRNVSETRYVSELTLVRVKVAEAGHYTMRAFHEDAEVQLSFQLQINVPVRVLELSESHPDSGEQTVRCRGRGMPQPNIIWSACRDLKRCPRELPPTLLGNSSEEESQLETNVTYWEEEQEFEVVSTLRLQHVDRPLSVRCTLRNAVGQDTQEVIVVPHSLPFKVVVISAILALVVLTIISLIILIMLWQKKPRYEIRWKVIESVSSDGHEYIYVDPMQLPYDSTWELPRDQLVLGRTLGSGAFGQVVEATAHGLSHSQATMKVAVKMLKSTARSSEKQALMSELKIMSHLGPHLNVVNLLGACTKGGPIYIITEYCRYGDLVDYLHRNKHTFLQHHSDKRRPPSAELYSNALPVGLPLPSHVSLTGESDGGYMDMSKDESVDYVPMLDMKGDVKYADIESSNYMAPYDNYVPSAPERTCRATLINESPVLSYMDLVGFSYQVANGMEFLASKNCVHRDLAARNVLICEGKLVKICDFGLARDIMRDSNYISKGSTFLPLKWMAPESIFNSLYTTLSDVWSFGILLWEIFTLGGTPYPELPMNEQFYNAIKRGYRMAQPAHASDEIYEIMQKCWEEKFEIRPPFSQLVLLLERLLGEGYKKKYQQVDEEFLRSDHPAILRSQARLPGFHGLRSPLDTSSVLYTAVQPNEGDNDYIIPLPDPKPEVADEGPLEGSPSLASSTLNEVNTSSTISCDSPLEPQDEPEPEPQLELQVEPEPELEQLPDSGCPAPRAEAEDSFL

SMILES: Cc1cc([C@@H](C)Nc2ccccc2C(=O)O)c2nc(N3CCOCC3)cc(=O)n2c1 [AZD-6482]
% of control [1]: 100%

% of inhibition [2]: -18.5%
SMILES: CC[C@@H]1[C@H](F)C(=O)N[C@@H]1COc1nccc2cc(C(N)=O)c(OC)cc12 [ZIMLOVISERTIB]

SMILES: N#Cc1cccc(-c2c[nH]c3ncnc(N4CCOCC4)c23)c1
% of control [3]: 90%

SMILES: C=CC(=O)Nc1ccc(C(=O)Nc2[nH]nc3c2CN(C(=O)N[C@H](CN(C)C)c2ccccc2)C3(C)C)cc1
% of engagement [4]: 2.8%
